Tests used:
[1] = system: Hepatic tumor (SNU423); settings: cited from earlier work
[2] = system: Breast tumor (SKBR3); settings: cited from earlier work
[3] = system: Gastric tumor (257P); settings: cited from earlier work
[4] = system: Melanoma (A375); settings: cited from earlier work
[5] = system: Breast tumor (R193); settings: cited from earlier work
[6] = system: Pancreatic tumor (181/85P); settings: cited from earlier work
[7] = system: Ovarian tumor (ES-2); settings: cited from earlier work
[8] = system: Hepatic tumor (Hep3B); settings: cited from earlier work
[9] = system: Hepatic tumor (SNU182); settings: cited from earlier work
[10] = system: HEp-2 cells; assay: Apoptotic killing of HEp-2 tumor cells (morphological alternations and death factor processing); assay type: cell-based, human; settings: for apoptotic killing (morphological alternations and death factor processing): doxorubicin 10 μM, etoposide 125 μM, data not shown
Text: We also examined if a different type of herpes simplex virus (i.e., HSV-2) may induce apoptotic killing of tumor cells. Standard methods were used to prepare wild-type HSV-2 (i.e., wtHSV-2). (Blaho et al.: Herpes Simplex Virus: Propagation, Quantification, and Storage. Current Protocols in Microbiology. Wiley & Sons. 14:1-23, 2005). Tumor cells (human carcinoma HEp-2) were used and infected with wtHSV-2. […] In particular, wtHSV-2 caused both the morphological alternations and death factor processing (data not shown). Thus, infection of Hs578T and HEp-2 cells with wtHSV-1 and wtHSV-2, respectively, leads to substantial apoptotic killing of tumor cells.
We examined tumor cell killing by chemotherapeutic agents. In this study, HEp-2 cells were treated with varying amounts of doxorubicin and etoposide. Apoptotic killing was measured using the method detailed above. […] Thus, these tumor cells were sensitive to chemotherapeutic agents.
(§1) INFECTION OF TUMOR CELLS WITH HSV MUTANTS: Approximately 1×10^6 cells (i.e., tumor cells) were exposed to 10 plaque forming units (PFU) per ml of ΔICP27 virus in 1 ml of 5% NBCS for 1 hour at 37° C. After this adsorption step, the medium was removed and discarded. 3 ml of fresh 5 NBCS was then added. Cells were maintained at 37° C. for at least 18 hours.
MICROSCOPIC ANALYSIS OF HSV INFECTED TUMOR CELLS: The morphology of HSV infected cells was analyzed by phase contrast and fluorescence microscopy using an Olympus IX70/IX-FLA inverted fluorescence microscope. Images were acquired using a Sony DKC-5000 digital photo camera linked to a PowerMac workstation and processed through Adobe Photoshop.
(§2) For visualization of chromatin condensation in live cells, […] Hoechst 33258 (Sigma) per ml was added to the medium and allowed to incubate at 37° C. for 30 min. The percentage (%) of nuclei containing condensed chromatin was determined by dividing the number of brightly stained, small (condensed) nuclei by the total number of nuclei (uncondensed plus condensed) in a particular (640) microscopic field. At least 100 nuclei were counted for each data point. The percentage (%) of chromatin condensation is represented as the mean±SD of three independent experiments.
IMMUNOBLOT ANALYSIS OF HSV INFECTED TUMOR CELLS: Whole-cell protein extract was prepared using lysis buffer (50 mM Tris/HCl, pH 7.5, 150 mM NaCl, 1% Triton X-100,1% deoxycholate, 0.1% SDS) supplemented with 2 mM PMSF (freshly prepared stock), 1% Translysol, 0.1 mM L-1-chloro-3-(4-tosylamido)-4-phenyl-2-butanone, 0.01 mM L-1-chlor-3-(4-tosylamido)-7-amino-2-heptanon-hydrochloride. Protein concentrations were determined using a modified Bradford protein assay (Bio-Rad Laboratories). […]

[11] = system: MCF-7; assay: Apoptotic killing of MCF-7 breast tumor cells; assay type: cell-based; settings: MCF-7 tumor cells
[12] = system: Hs578T tumor cells; assay: Apoptotic killing of Hs578T tumor cells (morphological alternations by microscopy/Hoechst, death factor processing by immunoblot); assay type: cell-based
Protocol: We have established an in vitro cell model and examined herpes simplex virus-induced apoptotic killing of tumor cells. In the first series of studies, we used a standard inducer of apoptotic killing. A protein kinase inhibitor (i.e., staurosporine) was used. Mammary tumor cells (Hs578T) were cultured and treated with staurosporine (0.1-2 μM) for about 12-18 hours. […] (FIG. 1).
Using Hs578T cells, we next examined whether herpes simplex virus (HSV) can induce apoptotic killing in these tumor cells. Standard methods were used to prepare wild-type HSV-1 (i.e., wtHSV-1). (Blaho et al.: Herpes Simplex Virus: Propagation, Quantification, and Storage. Current Protocols in Microbiology. Wiley & Sons. 14:1-23, 2005). Hs578T cells were infected with wtHSV-1 and examined for tumor cell apoptotic killing. A range of wtHSV-1 concentration was used and we observed that one particle of wtHSV-1 was sufficient to induce apoptotic killing of a tumor cell. Apoptotic killing was evaluated at 24-hour post infection by monitoring morphological alternations and presence of death factor processing as detailed above.
as §1, with “Cells were maintained at 37° C. for at least 18 hours.” left out
MICROSCOPIC ANALYSIS OF HSV INFECTED TUMOR CELLS: The morphology of HSV infected cells was analyzed by phase contrast and fluorescence microscopy using an Olympus IX70/IX-FLA inverted fluorescence microscope. […]
as §2, with “The percentage (%) of chromatin condensation is represented as the mean±SD of three independent experiments.” left out

| Compound | Resistant or Sensitive to Chemotherapeutic Agents [1] | Resistant or Sensitive to Chemotherapeutic Agents [2] | Resistant or Sensitive to Chemotherapeutic Agents [3] | Resistant or Sensitive to Chemotherapeutic Agents [4] | Resistant or Sensitive to Chemotherapeutic Agents [5] | Resistant or Sensitive to Chemotherapeutic Agents [6] | Resistant or Sensitive to Chemotherapeutic Agents [7] | Resistant or Sensitive to Chemotherapeutic Agents [8] | Resistant or Sensitive to Chemotherapeutic Agents [9] | sensitivity of tumor cells to chemotherapeutic agent [10] | apoptotic killing (morphological alternations and death factor processing) [10] | resistance of tumor cells to chemotherapeutic agent (drug-induced apoptosis) [11] | Death Factor Processing Poly(ADP-ribose) Polymerase, Procaspase 3, and DNA Fragmentation Factor-45 ([12]; immunoblot) | chromatin condensation (percentage of nuclei containing condensed chromatin) ([12]; staurosporine 0.1-2 μM, about 12-18 hours, mean±SD of three independent experiments) [%] | apoptotic effects ([12]; cycloheximide alone, data not shown) |
| --- | --- | --- | --- | --- | --- | --- | --- | --- | --- | --- | --- | --- | --- | --- | --- |
| N.N.[Cl][Pt][Cl] [Cisplatin, cisplatin] | Resistant | Resistant | Resistant | Resistant | Resistant | Resistant | Resistant | Resistant | Resistant | – | – | – | – | – | – |
| COc1cc([C@@H]2c3cc4c(cc3[C@@H](O[C@@H]3O[C@@H]5CO[C@@H](C)O[C@H]5[C@H](O)[C@H]3O)[C@H]3COC(=O)[C@H]23)OCO4)cc(OC)c1O [Etoposide, etoposide] | Resistant | Resistant | Resistant | Resistant | Resistant | Resistant | Resistant | Resistant | Resistant | sensitive | induce morphological alternations and death factor processing | resistant | – | – | – |
| CC(=O)O[C@H]1C(=O)[C@@]2(C)[C@H]([C@H](OC(=O)c3ccccc3)[C@]3(O)C[C@H](OC(=O)[C@H](O)[C@@H](NC(=O)c4ccccc4)c4ccccc4)C(C)=C1C3(C)C)[C@]1(OC(C)=O)CO[C@@H]1C[C@@H]2O [Paclitaxel, paclitaxel] | Sensitive | Sensitive | Sensitive | Sensitive | Sensitive | Sensitive | Resistant | Resistant | Resistant | – | – | – | – | – | – |
| COc1cccc2c1C(=O)c1c(O)c3c(c(O)c1C2=O)C[C@@](O)(C(=O)CO)C[C@@H]3O[C@H]1C[C@H](N)[C@H](O)[C@H](C)O1 [Doxorubicin, doxorubicin] | Resistant | Resistant | Resistant | Resistant | Resistant | Resistant | Resistant | Resistant | Resistant | sensitive | induce morphological alternations and death factor processing | resistant | – | – | – |
| O=c1[nH]cc(F)c(=O)[nH]1 [5-Fluorouracil, 5-fluorouracil] | Resistant | Sensitive | Resistant | Resistant | Sensitive | Sensitive | Sensitive | Resistant | Resistant | – | – | – | – | – | – |
| CN[C@@H]1C[C@H]2O[C@@](C)([C@@H]1OC)n1c3ccccc3c3c4c(c5c6ccccc6n2c5c31)C(=O)NC4 [Staurosporine, staurosporine] | – | – | – | – | – | – | – | – | – | – | – | – | drastic death factor processing | 86±14 | – |
| C[C@@H]1C[C@@H]([C@H](O)CC2CC(=O)NC(=O)C2)C(=O)[C@@H](C)C1 [Cycloheximide, cycloheximide] | – | – | – | – | – | – | – | – | – | – | – | – | – | – | no apparent apoptotic effects |

Source: patent US20140308668A1, “Method of Determining Susceptibility of a Tumor Cell to a Chemotherapeutic Agent: Novel Use of Herpes SImplex Virus” (priority 2008, published 2014)
